In patent US11730716B2, “Compounds for treating ophthalmic diseases and disorders” (priority 2014, dated 2023):

How the values were obtained:
[1] = system: intraocular tissues; assay: Local tolerability of intravitreal injections of PP-001 in rat eyes; assay type: in vivo; conditions: high dose PP-001 (150 μg/ml, 10 μl intravitreal); 8 days
Description: For this purpose, three different doses of PP-001, dissolved in phosphate-buffered saline (PBS) and a vehicle control with PBS only were injected into the posterior chamber (=vitreous) of rat eyes. The eyes (anterior chamber) were examined daily with an ophthalmoscope and after 8 days the experiment was terminated, and the eyes processed for histology (cryosections).
8 Lewis rats (age 7-8 weeks) were anesthetized using 0.5 mg/kg medetomidine s.c. Additional topical anesthesia with 0.4% oxybuprocaine eye drops was applied. After intraocular injection sedation was antagonized with an s.c. injection of 2.5 mg/kg atipamezol.
10 μl of solution were injected into the vitreous of both eyes with a 30 G needle, controlled under an operation microscope. The perpendicular injection is penetrating the […] and should neither touch the lens or the retina. After injection an antibiotic ointment was applied to the eyes to avoid infections.
PP-001 was dissolved in PBS and applied intravitreally in 3 different concentrations.
Group 1, Rat 1-1 and 1-2: 10 μl PBS (vehicle control)

[2] = system: experimental autoimmune uveitis (EAU); assay: Prevention of relapses in the experimental autoimmune uveitis (EAU) rat model, R14-induced, intravitreal injection; assay type: in vivo, Lewis rats
Source text: Experimental autoimmune uveitis (EAU) in Lewis rats is a model for human endogenous uveitis. The disease is mediated by CD4+ T lymphocytes of the T helper 1 (Th1) and Th17 subtypes. In Lewis rats the disease was induced by immunizing animals with retinal antigens such as interphotoreceptor retiniod-binding protein (IRBP) and adjuvant. IRBP is also considered to be an autoantigen in humans. Peptide R14, a 23mer from IRBP, is the most pathogenic epitope for Lewis rats. Immunization with these peptides emulsified in Complete Freund's Adjuvant (CFA) leads to severe inflammation of the anterior chamber of the eyes and destruction of the retinal architecture. R14 causes a relapsing-remitting disease with an early onset (about day 7), the peak of EAU between day 10 to 14 and the remission around day 17/18. 20 rats were immunized with 15 μg IRBP-peptide R14 emulsified in complete Freund's adjuvant. After primary disease, PP-001 was injected intravitreally at day 18 (6 μl=3 μg PP-001) in both eyes of 10 animals. One eye in this group dropped out because of penetrating the eye during injection. 10 animals received 6 μl PBS intravitreally in both eyes as control group. Clinical grade of inflammation in the anterior chamber was determined daily.

[3] = system: choroidal neovascularization; assay: Inhibition of choroidal neovascularization in PDSAg-induced EAU rat model; assay type: in vivo, Lewis rats
Source text: Choroidal neovascularization is a known feature of posterior uveitis and a major cause of retinal destruction and loss of vision. To monitor the effect of PP-001 on neovascularization, the EAU model in Lewis rats was used. In Lewis rats the disease was induced by immunizing animals with retinal antigen PDSAg, a 14mer derived from S—Ag. Immunization with that peptide emulsified in Complete Freund's Adjuvant (CFA) leads to severe inflammation of the anterior chamber of the eyes and destruction of the retinal architecture and choroidal neovascularization Induction with PDSAg causes a monophasic disease with first clinical signs of inflammation observed between day 8 and 12 after immunization and reaching the peak of disease between day 14 and 18. Inflammation in the anterior chamber subsides until day 21 to 22 post immunization. Long term effects such as choroidal neovascularization are seen at the later stages of the disease after the inflammation of the anterior chamber has subsided. 18 Lewis rats were immunized with PDSAg. Starting at the beginning of the disease (day 9 post immunization) 6 animals were treated with PP-001 and 6 animals were treated with vehicle control. […] Post day 25 experiment was stopped and 12 eyes for each treatment group were histological analyzed for the presence of choroidal neovascularizations.

[4] = system: vascular endothelial growth factor (VEGF); assay: Cellular protein expression of VEGF in antigen-stimulated rat lymph node/T cell cultures (Luminex multiplex cytokine assay); assay type: cell-based; conditions: 3 μM, 10 μM and 30 μM; supernatants after 24 h
Description: Rats were immunized with 25 μg of the respective peptide as previously described.
After 10 to 12 days popliteal, inguinal and para-aortal lymph nodes (LN) were collected, single cell suspensions were stimulated with the respective antigen peptides at a final concentration of 10 μg/ml RPMI1640, supplemented with Penicillin/Streptomycin, L-Glutamine, essential and non-essential amino acids (all 4 from PAA, Colebee, Germany), 12.5 μM […] and 1% normal rat serum. After 3 days the cells were expanded in culture medium supplemented with 10% spleen conditioned medium (from Concanavalin A-stimulated rat spleen cells) and 5% fetal calf serum (FCS) for 4 days.
For restimulation 0.5-2×10^6 T cells/ml were incubated with irradiated (8 Gy) rat thymocytes (3-10 fold more than T cells) as antigen-presenting cells (APC) and 10 μg/ml of the specific antigen peptide in culture medium as described for the first stimulation. After two days of culturing cells were expanded with conditioned medium for 5 days as described above, followed by another cycle of restimulation and expansion. […]

[5] = system: Ad5 McEwen; assay: Experimental adenoviral ocular infection (Ad5/NZW rabbit ocular model), eye drops, plaque assay on A549 monolayers; assay type: in vivo
Description: 25 New Zealand White rabbits were inoculated in both eyes following general anesthesia with ketamine and xylazine, topical anesthesia with proparacaine, and corneal scarification (12 cross-hatched strokes of a #25 needle) with 50 μl of 3.0×10^7 PFU/ml (1.5×10^6 PFU/eye) of Ad5 McEwen (Stock 1/17/08, 4.08×10^8 PFU/ml). Eyes were closed and gently rubbed for 5 seconds to ensure contact of the virus on all ocular surfaces.
At least 3 h after inoculation, all eyes were cultured for virus. Following topical anesthesia with proparacaine, a single cotton-tipped swab was placed into the lower fornix of each eye, rolled over the cornea into the upper fornix to recover adenovirus from the tear film and corneal and conjunctival surfaces. The swabs from each eye were placed individually into tubes containing 1 ml of outgrowth media and were frozen at −70° C. pending plaque assay.
On day 1, the rabbits were divided into 5 treatment groups outlined in the chart below. The five treatment groups consisted of a vehicle control, 0.16% PP-001 8 times, 6 times, and 4 times daily for 10 days, and the positive antiviral control 0.5% cidofovir (CDV).
Begin of treatment on day 1. Drops were administered with at least a 45 min interval between drops. All eyes from all groups were cultured for virus on days 1, 3, 4, 5, 7, 9, 11, and 14 PI at least 1 h after the final doses of the treatments described above. At various times during the course of the experiment, Ad5 titers were determined on A549 cell monolayers using standard plaque assays. The ocular cultures to be titered were thawed, diluted (1:10) and inoculated onto A549 monolayers. The virus was adsorbed for 3 h. Following adsorption, 1 ml of media plus 0.5% methylcellulose was added to each well, and the plates were incubated at 37° C. in a 5% […] atmosphere. After 7 days incubation, the cells were stained with 0.5% gentian violet, and the number of plaques were counted under a dissecting microscope (25×). The viral titers were then calculated, and expressed as plaque-forming units per milliliter (PFU/ml). […]

[6] = system: dry eye syndrome; assay type: in vivo
Description: The aim of the study was to evaluate the tolerability and therapeutic potential of PP-001 in a murine model of dry eye syndrome.
Dry eye symptoms were induced in forty (40) pigmented C57BL/6N mice by exposing them to a controlled environment (relative humidity<25%, air-flow 15 L/min, temperature 20-22° C.) and systemic scopolamine administration (0.5 mg/72 h) for 10 days.
Mice were randomized into 4 groups of 10 animals and treated with PP-001, Restasis®, placebo and the forth group remained untreated.
Tear production and corneal defects were evaluated on days 3, 7 and 10 using phenol red thread and fluorescence staining in each of the four groups.
Preparation of Eye Drop Solutions:
Placebo eye drops: A solution containing 20 mg/ml polyvinylpyrrolidone, 10 mg/ml glycerol 85%, 2 mg/ml hydroxypropyl methylcellulose in sodium phosphate buffer adjusted to pH 7.
PP-001 eye drops: A solution containing 1.6 mg/ml PP-001, 20 mg/ml polyvinylpyrrolidone, 10 mg/ml glycerol 85%, 2 mg/ml hydroxypropyl methylcellulose in sodium phosphate buffer adjusted to pH 7.
Positive control: Restasis® (cyclosporine ophthalmic emulsion from Allergan)

[7] = in vivo; set-up: species or system Dutch Belted rabbits; conditions: male, Dutch Belted, rabbit, topical or ocular; for half-life: t1/2
Description: 36 male Dutch Belted rabbits were divided in […]: 16 animals each in group 1 and 2 received 0.0625 mg and 0.125 mg PP-001 per eye, 4 animals were administered with dose vehicle (sucrose solution) only. At designated time points animals were sacrificed and vitreous humor, retina, and choroid were collected from both eyes of each animal and weighed. Samples were analysed for PP-001 concentration using a specific HPLC/MS/MS analytical method and PK parameters were calculated with Phoenix WinNonlin software (v6.3) using a non-compartmental model with sparse sampling.
Animals were anesthetized with an intramuscular injection of ketamine hydrochloride (30 mg/kg) and xylazine (5 mg/kg) for the injection procedure.
The study director performed the IVT injection in both eyes (OU). Topical ocular anesthetics were used per ASI SOPs.
The eyes and surrounding tissues were cleaned and disinfected with 2% betadine ophthalmic solution and then rinsed with basic salt solution (BSS). Using a 30 gauge needle with length no greater than ⅝ inch, injections were made 5 to 7 mm from the limbus (where the cornea meets the sclera). Once inserted, the PP-001 or vehicle control was injected at a volume of 25 μL per eye. The needle was then removed and the eye rinsed with BSS.
Vitreous humor and choroid/sclera/retina were collected from both eyes of each animal at the designated time point and analyzed for PP-001 concentration using a specific HPLC/MS/MS analytical method.

[8] = system: retinal and choroidal tissue; assay: Tolerability of intravitreal injections of PP-001 solutions in Dutch Belted rabbits; assay type: in vivo; conditions: intravitreal 0.0625 or 0.125 mg/eye

For `O=C(Nc1c(F)c(F)c(-c2cccc(OC(F)(F)F)c2)c(F)c1F)c1ccsc1C(=O)O` [PP-001, 3-(2,3,5,6-tetrafluoro-3′-trifluoromethoxy-biphenyl-4-ylcarbamoyl)-thiophene-2-carboxylic acid], the eyes completely normal [1] was 2 of 4, the “time to the appearance of the first relapse” value ([2]; single intravitreal injection at day 18, 3 μg per eye, compared to placebo group) was “delayed” and the “reduction of the number of relapses” value ([2]; single intravitreal injection at day 18, 6 μl = 3 μg per eye, vs PBS control) was > 50%. For the same compound, the “reduction of number of choroidal neovascularizations (factor)” value ([3]; treatment started at beginning of uveitis (day 9 post immunization), vs vehicle, p<0.005) was 3, the “mean number of choroidal neovascularizations” value ([3]; treatment started at day 15 (peak of disease), vehicle mean 6, p<0.05) was 3 and the “protein expression of VEGF” value [4] was “reduced”. The “dose response of antiviral efficacy” value ([5]; 0.16% PP-001 8 times and 6 times per day vs 4 times per day, 10 days) was “more efficacious than 0.16% PP-001 instilled 4 times per day for 10 days”, the “safety as topical antiviral agent” value ([5]; 0.16% PP-001 eye drops, 4-8 times daily for 10 days) was “safe” and the “antiviral efficacy (topical)” value ([5]; 0.16% PP-001 eye drops, Ad5 titers PFU/ml) was “efficacious”. The “corneal staining compared to placebo treatment” value ([6]; Day 10) was “reduced”, the “corneal staining in comparison to the induced untreated group” value ([6]; Day 10, multiple instillations) was “reduced significantly” and the corneal surface damage ([6]; multiple topical administrations of PP-001 1.6 mg/mL) was “reduced corneal surface damage comparable to Restasis®”. For the same compound, the Cmax ([7]; 0.0625 mg) was 33.2 µg/g, the t1/2 ([7]; 0.0625 mg) was 14.5 h and the Cmax ([7]; 0.0625 mg, Cmax) was 25.7 µg/g. For the same compound, the half-life ([7]; 0.0625 mg) was 14.3 h, the Cmax ([7]; 0.125 mg) was 56.9 µg/g and the t1/2 ([7]; 0.125 mg) was 13.1 h. For the same compound, the Cmax ([7]; 0.125 mg, Cmax) was 61.5 µg/g, the half-life ([7]; 0.125 mg) was 21.4 h and the “effect on the retinal and choroidal tissue” value [8] was “did not have any significant effect”.
